≈ marks a conversion by molar mass, not a printed value.

Among the data in ChEMBL document CHEMBL1275241, “Novel variants of the qnrB gene, qnrB22 and qnrB23, in Citrobacter werkmanii and Citrobacter freundii” (2010) are MIC values, retold here.

Holding throughout (format): functional
One assay has as its system Citrobacter werkmanii. In words: Antimicrobial activity against Citrobacter werkmanii PS012 expressing PMQR determinant qnrB22 gene by Etest.
A further assay concerns Citrobacter freundii. Put plainly: Antimicrobial activity against Citrobacter freundii S008 expressing PMQR determinant qnrB23 gene by Etest.
Assay [1] deals with Escherichia coli. In words: Antimicrobial activity against […] Escherichia coli DH5alpha TrfS008 harboring PMQR determinant qnrB23 by Etest.
Assay [2] deals with Escherichia coli. Put plainly: Antimicrobial activity against azide-resistant Escherichia coli J53 TrcS008 harboring PMQR determinant qnrB23 by Etest.
The subject of assay [3] is Escherichia coli. Put plainly: Antimicrobial activity against azide-resistant Escherichia coli J53 by Etest.
The subject of assay [4] is Escherichia coli. In words: Antimicrobial activity against […] Escherichia coli DH5alpha TrfPS012 harboring PMQR determinant qnrB22 by Etest.
Assay [5] concerns Escherichia coli. In words: Antimicrobial activity against […] Escherichia coli DH5alpha by Etest.
For assay [6], the system named is Escherichia coli. In words: Antimicrobial activity against azide-resistant Escherichia coli J53 TrcPS012 harboring PMQR determinant qnrB22 by Etest.

As to `O=C(O)c1cn(C2CC2)c2cc(N3CCNCC3)c(F)cc2c1=O` [CIPROFLOXACIN], the MIC (as a rule, the least concentration at which growth counts as inhibited) in the assay with Citrobacter werkmanii was 0.25 µg/mL (≈ 0.754 µM); against Citrobacter freundii, 2 µg/mL (≈ 6.04 µM); with Escherichia coli [1], 0.064 µg/mL (≈ 0.193 µM).
`C[C@H]1COc2c(N3CCN(C)CC3)c(F)cc3c(=O)c(C(=O)O)cn1c23.C[C@H]1COc2c(N3CCN(C)CC3)c(F)cc3c(=O)c(C(=O)O)cn1c23.O` [LEVOFLOXACIN]: the minimal inhibitory concentration (MIC) in the assay with Citrobacter werkmanii worked out at 0.5 µg/mL; against Citrobacter freundii it was 3 µg/mL; with Escherichia coli [2], 3 µg/mL; in the assay on Escherichia coli [3], 0.023 µg/mL; against Escherichia coli [4] it was 0.004 µg/mL; against Escherichia coli [1] it was 0.094 µg/mL. In addition, in the assay on Escherichia coli [5], the minimal inhibitory concentration (MIC) was below 0.002 µg/mL.
Regarding `CCn1cc(C(=O)O)c(=O)c2ccc(C)nc21` [NALIDIXIC ACID], the MIC with Citrobacter werkmanii is 32 µg/mL (≈ 138 µM); with Citrobacter freundii, above 256 µg/mL; with Escherichia coli [6], 16 µg/mL (≈ 68.9 µM); in the assay on Escherichia coli [2], above 256 µg/mL; with Escherichia coli [3], 3 µg/mL (≈ 12.9 µM); against Escherichia coli [4], 4 µg/mL (≈ 17.2 µM). Moreover, the results for the minimum inhibitory concentration (MIC) in the assay on Escherichia coli [1] and with Escherichia coli [5] were 16 µg/mL (≈ 68.9 µM) and 2 µg/mL (≈ 8.61 µM), respectively.
Turning to `CCn1cc(C(=O)O)c(=O)c2cc(F)c(N3CCNCC3)cc21` [NORFLOXACIN], the MIC with Citrobacter werkmanii amounted to 0.5 µg/mL (≈ 1.57 µM); against Citrobacter freundii, 8 µg/mL (≈ 25.1 µM); with Escherichia coli [6], 0.25 µg/mL (≈ 0.783 µM); against Escherichia coli [2], 8 µg/mL (≈ 25.1 µM); with Escherichia coli [3], 0.064 µg/mL (≈ 0.2 µM); against Escherichia coli [4] it was 0.064 µg/mL (≈ 0.2 µM). Further, the MIC worked out at 0.25 µg/mL (≈ 0.783 µM) against Escherichia coli [1] and 0.032 µg/mL (≈ 0.1 µM) in the assay with Escherichia coli [5].
For `CC1COc2c(N3CCN(C)CC3)c(F)cc3c(=O)c(C(=O)O)cn1c23` (stereo not drawn) [OFLOXACIN], the minimum inhibitory concentration (MIC) against Citrobacter werkmanii came out at 1 µg/mL (≈ 2.77 µM); against Citrobacter freundii it was 8 µg/mL (≈ 22.1 µM); with Escherichia coli [2], 8 µg/mL (≈ 22.1 µM); in the assay with Escherichia coli [3], 0.064 µg/mL (≈ 0.177 µM); in the assay on Escherichia coli [4] it was 0.064 µg/mL (≈ 0.177 µM); in the assay on Escherichia coli [1] it was 0.25 µg/mL (≈ 0.692 µM). For the same compound, the MIC in the assay with Escherichia coli [5] was 0.023 µg/mL (≈ 0.0636 µM).
